# Measured values as given in US5854216A, “Marker for growth hormone-releasing factor receptors” (Universite de Montreal, priority 1996, dated 1998).
# Square brackets hold non-standard residues; d marks the D form. Peptide text beside a SMILES is read from it. Bpa = N[C@@H](Cc1ccc(C(=O)c2ccccc2)cc1)C(=O)O; Nle = CCCC[C@H](N)C(=O)O
# Molecular target: T1, GRF receptors ([^125 I-Tyr^10 ]hGRF(1-44)NH2 binding sites in rat adenopituitary) (Rattus norvegicus, UniProt Q02644)
# T1 construct: from tissue; host or cells: rat anterior pituitary homogenate
# T1 sequence (Q02644 23-423 isoform Q02644-2 limits assumed): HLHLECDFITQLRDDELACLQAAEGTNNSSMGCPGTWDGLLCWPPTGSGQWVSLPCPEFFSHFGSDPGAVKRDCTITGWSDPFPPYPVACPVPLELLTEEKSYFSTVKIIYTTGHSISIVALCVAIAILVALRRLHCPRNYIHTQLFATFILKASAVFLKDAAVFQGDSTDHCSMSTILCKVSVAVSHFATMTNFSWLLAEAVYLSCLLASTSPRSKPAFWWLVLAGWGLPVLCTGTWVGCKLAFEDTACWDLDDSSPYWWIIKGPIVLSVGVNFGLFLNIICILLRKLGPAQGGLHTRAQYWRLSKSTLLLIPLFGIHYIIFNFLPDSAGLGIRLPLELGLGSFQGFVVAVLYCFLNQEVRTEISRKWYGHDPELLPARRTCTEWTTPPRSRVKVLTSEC
# Assay: Competitive binding assay with [^125 I-Tyr^10 ]hGRF(1-44)NH2 on anterior pituitary homogenates
# Conditions: for Relative affinity: ratio IC50 of hGRF(1-29)NH2 /IC50 analogue; for biological activity compared to that of native GRF: rat adenopituitary
# Method: The binding of [^125 I-Tyr^10 ]hGRF(1-44)NH2 was performed on anterior pituitary homogenates as previously described (Gaudreau P. et al., J. Biol. Chem., 1992, 35:1864-1869). Briefly, anterior pituitaries (pit.) were dissected out, rinsed and homogenized for 8 sec with a Micro Ultrasonic Cell Disrupter™, in ice-cold 50 mM Tris-HCl buffer, pH 7.4, containing 5 mM MgCl2 and 5 mM EDTA (1 pit./0.5 ml). These homogenates were used immediately. Competition studies were performed using 35-50 pM [^125 I-Tyr^10 ]hGRF(1-44)NH2 as radio-ligand,50 μl of homogenate (70 to 75 μg of protein), and increasing concentrations of Nε-CF-[Lys^31 ]hGRF or other GRF analogues (0-1000 nM) or with 2.4 μM rGRF(1-29)NH2 for determination of non-specific binding, in a total volume of 300 μl of Tris-HCl buffer, pH 7.4, containing 5 mM EDTA, 5 mM MgCl2 and 0.42% BSA. Incubations were carried out at 23° C. for 60 min and stopped by centrifugation (12,000 g, 5 min, at 4° C.). The radioactivity content in the pellet was measured by gamma counting. The affinity of hGRF(1-29)NH2 was tested in each experiment to assess the validity of the assay and determine the relative affinity of the analogues. […] The Hill values indicate that all these peptides bind to the high and low affinity GRF binding sites found in the anterior pituitary.
# [1] = Table 11, mean±SD of 2 or mean±SE of 3 experiments for analogues, mean±SE of 11 for hGRF(1-29)NH2
smiles,measurement,setting,value
"CC[C@H](C)[C@H](NC(=O)[C@H](C)NC(=O)[C@H](CC(=O)O)NC(=O)[C@@H](C)NC(=O)[C@@H](N)Cc1ccc(O)cc1)C(=O)N[C@@H](Cc1ccccc1)C(=O)N[C@H](C(=O)N[C@@H](CC(N)=O)C(=O)N[C@@H](CO)C(=O)N[C@H](Cc1ccc(O)cc1)C(=O)N[C@@H](CCCNC(=N)N)C(=O)N[C@@H](CCCCN)C(=O)N[C@H](C(=O)N[C@@H](CC(C)C)C(=O)NCC(=O)N[C@@H](CCC(N)=O)C(=O)N[C@@H](CC(C)C)C(=O)N[C@@H](CO)C(=O)N[C@@H](C)C(=O)N[C@@H](CCCNC(=N)N)C(=O)N[C@H](CCCCN)C(=O)N[C@@H](CC(C)C)C(=O)N[C@@H](CC(C)C)C(=O)N[C@@H](CCC(N)=O)C(=O)N[C@@H](CC(=O)O)C(=O)N[C@H](C(=O)N[C@@H](CCSC)C(=O)N[C@@H](CO)C(=O)N[C@@H](CCCNC(=N)N)C(N)=O)[C@@H](C)CC)C(C)C)[C@@H](C)O [D-Ala^2, D-Tyr^10, D-Lys^21]",Hill coef.,Table 11,0.64 ± 0.05
same,Relative affinity,Table 11,21 ± 11%
same,biological activity compared to that of native GRF,,preserved or increased
"CC[C@H](C)[C@H](NC(=O)[C@H](C)NC(=O)[C@H](CC(=O)O)NC(=O)[C@@H](C)NC(=O)[C@@H](N)Cc1ccc(O)cc1)C(=O)N[C@@H](Cc1ccccc1)C(=O)N[C@H](C(=O)N[C@@H](CC(N)=O)C(=O)N[C@@H](CO)C(=O)N[C@H](Cc1ccc(O)cc1)C(=O)N[C@@H](CCCNC(=N)N)C(=O)N[C@@H](CCCCN)C(=O)N[C@H](C(=O)N[C@@H](CC(C)C)C(=O)NCC(=O)N[C@@H](CCC(N)=O)C(=O)N[C@@H](CC(C)C)C(=O)N[C@@H](CO)C(=O)N[C@@H](C)C(=O)N[C@@H](CCCNC(=N)N)C(=O)N[C@@H](CCCCN)C(=O)N[C@@H](CCCCN)C(=O)N[C@@H](CC(C)C)C(=O)N[C@@H](CCC(N)=O)C(=O)N[C@@H](CC(=O)O)C(=O)N[C@H](C(=O)N[C@@H](CCSC)C(=O)N[C@@H](CO)C(=O)N[C@@H](CCCNC(=N)N)C(N)=O)[C@@H](C)CC)C(C)C)[C@@H](C)O [D-Ala^2, D-Tyr^10, Lys^22] (H-Y[dA]DAIFTNS[dY]RKVLGQLSARKKLQDIMSR-NH2)",IC50,[1],0.49 ± 0.27 nM
"CC[C@H](C)[C@H](NC(=O)[C@H](C)NC(=O)[C@H](CC(=O)O)NC(=O)[C@@H](C)NC(=O)[C@@H](N)Cc1ccc(O)cc1)C(=O)N[C@@H](Cc1ccccc1)C(=O)N[C@H](C(=O)N[C@@H](CC(N)=O)C(=O)N[C@@H](CO)C(=O)N[C@H](Cc1ccc(O)cc1)C(=O)N[C@@H](CCCNC(=N)N)C(=O)N[C@@H](CCCCN)C(=O)N[C@H](C(=O)N[C@@H](CC(C)C)C(=O)NCC(=O)N[C@@H](CCC(N)=O)C(=O)N[C@@H](CC(C)C)C(=O)N[C@@H](CO)C(=O)N[C@@H](C)C(=O)N[C@@H](CCCNC(=N)N)C(=O)N[C@@H](CCCCN)C(=O)N[C@@H](CC(C)C)C(=O)N[C@@H](CC(C)C)C(=O)N[C@@H](CCC(N)=O)C(=O)N[C@@H](CC(=O)O)C(=O)N[C@H](C(=O)N[C@@H](CCSC)C(=O)N[C@@H](CO)C(=O)N[C@@H](CCCNC(=N)N)C(N)=O)[C@@H](C)CC)C(C)C)[C@@H](C)O [D-Ala^2, D-Tyr^10]",Hill coef.,Table 11,0.41 ± 0.02
same,Relative affinity,Table 11,25 ± 3%
same,biological activity compared to that of native GRF,,preserved or increased
"CCCC[C@H](NC(=O)[C@@H](NC(=O)[C@H](CC(=O)O)NC(=O)[C@H](CCC(N)=O)NC(=O)[C@H](CC(C)C)NC(=O)[C@H](CC(C)C)NC(=O)[C@H](CCCCN)NC(=O)[C@H](CCCNC(=N)N)NC(=O)[C@H](C)NC(=O)[C@H](CO)NC(=O)[C@H](CC(C)C)NC(=O)[C@H](CCC(N)=O)NC(=O)CNC(=O)[C@H](CC(C)C)NC(=O)[C@@H](NC(=O)[C@H](CCCCN)NC(=O)[C@H](CCCNC(=N)N)NC(=O)[C@H](Cc1ccc(O)cc1)NC(=O)[C@H](Cc1ccc(C(=O)c2ccccc2)cc1)NC(=O)[C@H](CC(N)=O)NC(=O)[C@@H](NC(=O)[C@H](Cc1ccccc1)NC(=O)[C@@H](NC(=O)[C@H](C)NC(=O)[C@H](CC(=O)O)NC(=O)[C@H](C)NC(=O)[C@@H](N)Cc1c[nH]cn1)[C@@H](C)CC)[C@@H](C)O)C(C)C)[C@@H](C)CC)C(=O)N[C@@H](CO)C(=O)N[C@@H](CCCNC(=N)N)C(N)=O [His^1, bpa^9, Nle^27] (H-HADAIFTN[Bpa]YRKVLGQLSARKLLQDI[Nle]SR-NH2)",Hill coef.,Table 7,0.70 ± 0.06
same,Relative affinity,Table 7,61.0 ± 7%
"CC[C@H](C)[C@H](NC(=O)[C@H](C)NC(=O)[C@H](CC(=O)O)NC(=O)[C@H](C)NC(=O)[C@@H](N)Cc1ccc(O)cc1)C(=O)N[C@@H](Cc1ccccc1)C(=O)N[C@H](C(=O)N[C@@H](CC(N)=O)C(=O)N[C@@H](CO)C(=O)N[C@@H](Cc1ccc(O)cc1)C(=O)N[C@@H](CCCNC(=N)N)C(=O)N[C@@H](CCCCN)C(=O)N[C@H](C(=O)N[C@@H](CC(C)C)C(=O)NCC(=O)N[C@@H](CCC(N)=O)C(=O)N[C@@H](CC(C)C)C(=O)N[C@@H](CO)C(=O)N[C@@H](C)C(=O)N[C@@H](CCCNC(=N)N)C(=O)N[C@@H](CCCCN)C(=O)N[C@@H](CC(C)C)C(=O)N[C@@H](CC(C)C)C(=O)N[C@@H](CCC(N)=O)C(=O)N[C@@H](CC(=O)O)C(=O)N[C@H](C(=O)N[C@@H](CCSC)C(=O)N[C@@H](CO)C(=O)N[C@@H](CCCNC(=N)N)C(=O)NCCCCCCCC(=O)N[C@@H](CS)C(N)=O)[C@@H](C)CC)C(C)C)[C@@H](C)O [Octanoyl^30, Cys^31, [octanoyl^30,Cys^31] hGRF(1-29)NH2]",IC50,[1],6.84 ± 2.12 nM
CC[C@H](C)[C@H](NC(=O)[C@H](C)NC(=O)[C@H](CC(=O)O)NC(=O)[C@H](C)NC(=O)[C@H](Cc1ccc(O)cc1)NC(=S)Nc1ccc(-c2c3ccc(=O)cc-3oc3cc(O)ccc23)c(C(=O)O)c1)C(=O)N[C@@H](Cc1ccccc1)C(=O)N[C@H](C(=O)N[C@@H](CC(N)=O)C(=O)N[C@@H](CO)C(=O)N[C@@H](Cc1ccc(O)cc1)C(=O)N[C@@H](CCCNC(=N)N)C(=O)N[C@@H](CCCCN)C(=O)N[C@H](C(=O)N[C@@H](CC(C)C)C(=O)NCC(=O)N[C@@H](CCC(N)=O)C(=O)N[C@@H](CC(C)C)C(=O)N[C@@H](CO)C(=O)N[C@@H](C)C(=O)N[C@@H](CCCNC(=N)N)C(=O)N[C@@H](CCCCN)C(=O)N[C@@H](CC(C)C)C(=O)N[C@@H](CC(C)C)C(=O)N[C@@H](CCC(N)=O)C(=O)N[C@@H](CC(=O)O)C(=O)N[C@H](C(=O)N[C@@H](CCSC)C(=O)N[C@@H](CO)C(=O)N[C@@H](CCCNC(=N)N)C(N)=O)[C@@H](C)CC)C(C)C)[C@@H](C)O [[Nα-fluorescein-5-thiocarbamyl]hGRF(1-29)NH2],Hill coef.,Table 4,0.61 ± 0.05
same,Relative affinity,Table 4,19 ± 11%
CC[C@H](C)[C@H](NC(=O)[C@H](C)NC(=O)[C@H](CC(=O)O)NC(=O)[C@H](C)NC(=O)[C@H](Cc1ccc(O)cc1)NC(=S)Nc1ccc2c(c1)C(=O)OC21c2ccc(O)cc2Oc2cc(O)ccc21)C(=O)N[C@@H](Cc1ccccc1)C(=O)N[C@H](C(=O)N[C@@H](CC(N)=O)C(=O)N[C@@H](CO)C(=O)N[C@@H](Cc1ccc(O)cc1)C(=O)N[C@@H](CCCNC(=N)N)C(=O)N[C@@H](CCCCN)C(=O)N[C@H](C(=O)N[C@@H](CC(C)C)C(=O)NCC(=O)N[C@@H](CCC(N)=O)C(=O)N[C@@H](CC(C)C)C(=O)N[C@@H](CO)C(=O)N[C@@H](C)C(=O)N[C@@H](CCCNC(=N)N)C(=O)N[C@@H](CCCCN)C(=O)N[C@@H](CC(C)C)C(=O)N[C@@H](CC(C)C)C(=O)N[C@@H](CCC(N)=O)C(=O)N[C@@H](CC(=O)O)C(=O)N[C@H](C(=O)N[C@@H](CCSC)C(=O)N[C@@H](CO)C(=O)N[C@@H](CCCNC(=N)N)C(=O)N[C@@H](CCC(N)=O)C(=O)N[C@@H](CCC(N)=O)C(=O)NCC(=O)N[C@@H](CCC(=O)O)C(=O)N[C@@H](CO)C(=O)N[C@@H](CC(N)=O)C(=O)N[C@@H](CCC(N)=O)C(=O)N[C@@H](CCC(=O)O)C(=O)N[C@@H](CCCNC(=N)N)C(=O)NCC(=O)N[C@@H](C)C(=O)N[C@@H](CCCNC(=N)N)C(=O)N[C@@H](C)C(=O)N[C@@H](CCCNC(=N)N)C(=O)N[C@@H](CC(C)C)C(N)=O)[C@@H](C)CC)C(C)C)[C@@H](C)O [[Nα-fluorescein-5-thiocarbamyl]hGRF(1-44)NH2],affinity for adenopituitary GRF receptors (in words),,nanomolar affinity
same,Hill coef.,Table 4,0.63 ± 0.07
same,IC50,"Table 4, mean±SD of 2 experiments in triplicate for analogues, mean±SE of 29 experiments for hGRF(1-29)NH2",14 ± 4 nM
same,Relative affinity,Table 4,19 ± 5%
